What all share (format): cell-based, rabbit
The target of one test is T1, R282D-PepT1 (Oryctolagus cuniculus, UniProt P36836, R282D).
T1 construct: expressed in transfected cells; host or cells: Xenopus laevis oocytes injected with cRNA
T1 sequence (P36836 1-707 R282D): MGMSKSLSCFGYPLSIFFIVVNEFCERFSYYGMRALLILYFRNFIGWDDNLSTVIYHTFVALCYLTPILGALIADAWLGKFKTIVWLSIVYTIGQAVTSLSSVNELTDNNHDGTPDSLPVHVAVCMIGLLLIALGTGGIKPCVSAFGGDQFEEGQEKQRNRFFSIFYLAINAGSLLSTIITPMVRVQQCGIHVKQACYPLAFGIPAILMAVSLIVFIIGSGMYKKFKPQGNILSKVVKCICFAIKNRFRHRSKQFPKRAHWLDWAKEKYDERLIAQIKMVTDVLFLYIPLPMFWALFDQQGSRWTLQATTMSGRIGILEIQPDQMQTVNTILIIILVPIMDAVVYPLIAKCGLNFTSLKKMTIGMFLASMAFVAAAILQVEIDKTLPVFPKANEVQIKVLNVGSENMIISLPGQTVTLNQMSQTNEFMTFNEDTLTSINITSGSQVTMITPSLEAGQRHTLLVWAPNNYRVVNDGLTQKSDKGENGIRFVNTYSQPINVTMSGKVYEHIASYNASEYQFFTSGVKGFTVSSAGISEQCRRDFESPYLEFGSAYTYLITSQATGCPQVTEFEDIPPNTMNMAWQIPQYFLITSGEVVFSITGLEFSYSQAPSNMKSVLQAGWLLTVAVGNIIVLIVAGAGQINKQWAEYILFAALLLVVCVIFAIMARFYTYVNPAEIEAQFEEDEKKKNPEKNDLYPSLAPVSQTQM
Put plainly: Inhibition of [3H]-D-Phe-L-Gln uptake into Xenopus oocytes expressing R282D-PepT1 (competition, Ki). Conditions: pHout 5.5, 0.4 μM [3H]-D-Phe-L-Gln. The protocol:
(§1) Zero-trans uptake of [^3H]-D-Phe-L-Gln (17.4 Ci/mmole, custom synthesised, Cambridge Research Biochemicals, Stockton-on-Tees, UK) was performed as previously described ([Meredith, 2004]). Briefly, 5 oocytes were incubated in 100 μl of uptake medium (95 mM NaCl, 2 mM KCl, 1 mM CaCl2, 0.42 mM MgCl2, 10 mM Tris/Hepes pH 7.4 or Tris/Mes pH 5.5) with tracer (0.4 μM) [^3H]-D-Phe-L-Gln. After incubation, the oocytes were washed sequentially five times in 1 ml of ice-cold 120 mM NaCl solution, lysed individually with 100 μl 2% (w/v) SDS and liquid scintillation counted. As a control non-injected oocytes were also incubated in uptake medium with [^3H]-D-Phe-L-Gln as above.
(§2) The affinity of wild-type and mutant PepT1 were assessed by competition studies with 0.4 μM [^3H]-D-Phe-L-Gln and Gly-L-Gln present in the uptake medium in concentrations from 0 to 2 mM using the protocol above, and the Ki calculated using the method of [Deves and Boyd (1989)].

For another test, the target named is T2, R282Q-PepT1 (Oryctolagus cuniculus, UniProt P36836, R282Q).
T2 construct: expressed in transfected cells; host or cells: Xenopus laevis oocytes injected with cRNA
T2 sequence (P36836 1-707 R282Q): T1 sequence (P36836 1-707 R282D) with D282Q
The experiment in a line: Inhibition of [3H]-D-Phe-L-Gln uptake into Xenopus oocytes expressing R282Q-PepT1 (competition, Ki). Conditions: pHout 5.5, 0.4 μM [3H]-D-Phe-L-Gln. How it is done:
as §1, §2

The target in a further test is T3, R282E-PepT1 (Oryctolagus cuniculus, UniProt P36836, R282E).
T3 construct: expressed in transfected cells; host or cells: Xenopus laevis oocytes injected with cRNA
T3 sequence (P36836 1-707 R282E): T1 sequence (P36836 1-707 R282D) with D282E
The experiment in a line: Accumulation of [3H]-D-Phe-L-Gln above the extracellular concentration by oocytes expressing R282E-PepT1. Conditions: R282E-PepT1, pHout 7.4, 24 h incubation. How it is done:
as §1

Numbering of substitutions follows the chain as printed. Where a SMILES comes first, the peptide text is derived from it.

In the case of `NCC(=O)N[C@@H](CCC(N)=O)C(=O)O` [Gly-L-Gln] (H-Gly-Gln-OH), the figures for the Ki at R282D-PepT1 and on R282Q-PepT1 were 340 ± 270 µM and 460 ± 220 µM, respectively.
As to `NC(=O)CC[C@H](NC(=O)[C@H](N)Cc1ccccc1)C(=O)O` [D-Phe-L-Gln], at R282E-PepT1, the “accumulation above extracellular concentration” value is 2.3 ± 0.4 -fold.

The term Ki denotes the dissociation constant of the complex between target and ligand, obtained from inhibition or displacement. Lower therefore signals a stronger hold on the target.

These data come from PMC2267855, “Site-directed mutagenesis of Arginine282 suggests how protons and peptides are co-transported by rabbit PepT1” (The International Journal of Biochemistry & Cell Biology, 2008).
